Patent US7229769B2, “Compositions and methods for detecting protease activity” (Illumina, Inc., priority 2005, dated 2007)
Residues, ends and D or L forms follow the SMILES beside them. *: point of attachment. Cbz = O=C(OCc1ccccc1)*; CH2F = FC*

Target: T1, Caspase-3 (Homo sapiens, UniProt P42574)
T1 sequence (P42574 29-175 limits assumed): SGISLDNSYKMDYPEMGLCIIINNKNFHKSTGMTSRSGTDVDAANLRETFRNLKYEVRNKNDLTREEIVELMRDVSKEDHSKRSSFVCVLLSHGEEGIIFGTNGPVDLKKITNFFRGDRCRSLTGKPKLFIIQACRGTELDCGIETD
T1 sequence (P42574 176-277 limits assumed): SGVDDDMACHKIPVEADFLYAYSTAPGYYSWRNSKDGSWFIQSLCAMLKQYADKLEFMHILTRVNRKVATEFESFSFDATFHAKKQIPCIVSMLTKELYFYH
Assay: Caspase-3 protease assay with protein-DNA conjugate substrate, streptavidin extraction, BeadArray detection; inhibition analysis
Assay type: biochemical
Settings: end point assays, various concentrations of inhibitor vs. absence of inhibitor, FIG. 10
Procedure: Caspase-3 protease activity was carried out as follows. Briefly, the caspase-3 substrate included a protein moiety (peptide) having a caspase-3 amino acid recognition sequence. The protein moiety was attached at its amino terminus to a FAM-labeled DNA moiety and at its carboxy terminus to a biotin. The enzymatic reactions were performed in 30 to 60 microliter volumes having substrate concentrations in the range of 20 nM to 150 nM. The enzyme concentrations ranged from a few ng/ml to a few mg/ml. The assay buffer was 50 mM Tris-HCL, pH 8.0, 1 mM CaCl2, and 0.1% Tween-20 (v/v). The assay was carried out at 37° C. at varying times from 5 minutes to twelve hours.
Following incubation of the protease and substrate, the reaction mixture was extracted with streptavidin beads provided in molar excess for 15 minutes to remove uncleaved substrate (and cleaved protein fragments lacking the DNA moiety). Following removal of the streptavidin beads, the remaining mixture, containing FAM-labeled DNA fragments of the cleaved caspase-3 substrate, was diluted into GoldenGate™ hybridization buffer (Illumina, Inc., San Diego, Calif.) and hybridized onto a Sentrix® BeadArray Matrix for one hour at room temperature. The BeadArray matrix included nucleic acid probes that were complementary to the FAM-labeled DNA fragments. […]

Compound: COC(=O)C[C@H](NC(=O)[C@H](C)NC(=O)[C@@H](NC(=O)OCc1ccccc1)C(C)C)C(=O)CF [ZVAD-FMK] (Cbz-Val-Ala-Asp(OMe)-CH2F)
- extent of inhibition of caspase-3 (mean signal intensity vs. time): as the concentration of inhibitor was increased the extent of inhibition was also increased
